Test results as given in patent US11267836B2, “Methods for producing ferric maltol compositions from ligand modified and ligand coated ferric hydroxides” (Shield TX (UK) Limited, priority 2016, dated 2022).

Legend:
[1] = Dissolution in ethanol (check for ferric hydroxide in ferric trimaltol); settings: for dissolution of ferric trimaltol powder in ethanol: powders produced as per Examples 1 and 2 dissolved in ethanol, complete dissolution confirms absence of iron hydroxides
Experimental: As such ferric trimaltol powders produced as per Examples 1 and 2 were dissolved in ethanol.

[2] = in vivo; cited from earlier work
[3] = tested on: IBD patients; settings: in vivo; cited from earlier work

## Cc1occc(=O)c1[O-].Cc1occc(=O)c1[O-].Cc1occc(=O)c1[O-].[Fe+3] [Ferric trimaltol, ferric trimaltol]
[1]
  solubility in ethanol: soluble in ethanol
[2]
  absorption: well absorbed
[3]
  tolerability: well tolerated

## Cc1occc(=O)c1[O-].Cc1occc(=O)c1[O-].Cc1occc(=O)c1[O-].[Fe+3] [Example 1]
[1]
  dissolution of ferric trimaltol powder in ethanol: did not

## Cc1occc(=O)c1[O-].Cc1occc(=O)c1[O-].Cc1occc(=O)c1[O-].[Fe+3] [Example 2]
[1]
  dissolution of ferric trimaltol powder in ethanol: dissolved completely
